± gives the standard deviation of the averaged measurements.
The test systems below were run with COCC[n+]1c2c(n(Cc3cnccn3)c1C)C(=O)c1ccccc1C2=O [YM155] (assay: surviving fraction relative to DMSO-only wells; higher = less growth inhibition). Conditions: 0.5 nM; exposure time: 5 days.
Procedure, shortened: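 Viability values are CellTiter-Glo luminescence readings, given as surviving fraction against the median of DMSO-only wells. The readings were taken after 10 minutes at room temperature, following five days of continuous exposure to inhibitors at 0.5, 1, 5, 10, 50, 100, 500 and 1000 nM that began 24 hours after log-phase tumour cell lines were seeded at 250–500 cells per well in 384-well plates. Every line was screened three times and kept only if replicate Pearson r >0.7 and median Z' >0.3.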
MFM223 BREAST was tested, and the surviving fraction was 0.966 ± 0.082.
For MG63 BONE, the surviving fraction was 0.978 ± 0.036.
MHM BONE was tested, and the surviving fraction was 0.972 ± 0.013.
NCIH441 LUNG was tested, and the surviving fraction was 0.991 ± 0.038.
NOS1 BONE gave a surviving fraction of 1.4 ± 0.44.
Work on NY BONE yielded a surviving fraction of 0.911 ± 0.035.
Test System OS25HAL BONE has a surviving fraction of 0.944 ± 0.046.
OSHN BONE gave a surviving fraction of 1.02 ± 0.021.
With RDES SOFT TISSUE the surviving fraction was 1.44 ± 0.073.
SCC47 HEADNECK showed a surviving fraction of 1.01 ± 0.13.
SCC90 HEADNECK was tested, and the surviving fraction was 0.914 ± 0.097.
SG27 HEADNECK gave a surviving fraction of 1.13 ± 0.13.
For SG28 HEADNECK, the surviving fraction was 1.07 ± 0.083.
Work on SG31 HEADNECK yielded a surviving fraction of 1.01 ± 0.095.
With SG32 HEADNECK the surviving fraction was 0.841 ± 0.053.
SG43 HEADNECK showed a surviving fraction of 1.18 ± 0.4.
In the case of SIHA CERVIX, the surviving fraction is reported as 0.917 ± 0.056.
With SJSA1 BONE the surviving fraction was 1 ± 0.059.
For SKBR3 BREAST, the surviving fraction was 0.89 ± 0.03.
In the case of SNU475 LIVER, the surviving fraction is reported as 0.815 ± 0.055.
In the case of SUM44 BREAST, the surviving fraction is reported as 1.05 ± 0.16.
SUM149.B1*.S BREAST was tested, and the surviving fraction was 0.847 ± 0.051.
In the case of SUM159 BREAST, the surviving fraction is reported as 0.994 ± 0.042.
With SYO1 SYNOVIAL the surviving fraction was 0.847 ± 0.01.
Test System T47D BREAST has a surviving fraction of 0.959 ± 0.013.
Test System U2OS BONE has a surviving fraction of 1.02 ± 0.026.
VCAP PROSTATE gave a surviving fraction of 0.826 ± 0.049.
VP229 BREAST showed a surviving fraction of 1.04 ± 0.023.
Test System YAMATO SYNOVIAL has a surviving fraction of 0.656 ± 0.066.
ZR751 BREAST gave a surviving fraction of 0.835 ± 0.1.

Same assay, conditions: 1 nM; exposure time: 5 days
Work on MFM223 BREAST yielded a surviving fraction of 0.954 ± 0.19.
In the case of MG63 BONE, the surviving fraction is reported as 1.04 ± 0.057.
Work on MHM BONE yielded a surviving fraction of 0.998 ± 0.021.
For NCIH441 LUNG, the surviving fraction was 1.05 ± 0.024.
NOS1 BONE gave a surviving fraction of 1.03 ± 0.084.
Test System NY BONE has a surviving fraction of 0.949 ± 0.017.
With OS25HAL BONE the surviving fraction was 0.987 ± 0.022.
Work on OSHN BONE yielded a surviving fraction of 1.05 ± 0.019.
Test System RDES SOFT TISSUE has a surviving fraction of 1.58 ± 0.18.
With SCC47 HEADNECK the surviving fraction was 0.998 ± 0.023.
SCC90 HEADNECK showed a surviving fraction of 0.937 ± 0.021.
SG27 HEADNECK showed a surviving fraction of 1.05 ± 0.092.
For SG28 HEADNECK, the surviving fraction was 1.17 ± 0.066.
For SG31 HEADNECK, the surviving fraction was 1.07 ± 0.074.
With SG32 HEADNECK the surviving fraction was 0.83 ± 0.12.
Test System SG43 HEADNECK has a surviving fraction of 1.02 ± 0.032.
SIHA CERVIX showed a surviving fraction of 0.938 ± 0.069.
With SJSA1 BONE the surviving fraction was 1.6 ± 0.045.
Work on SKBR3 BREAST yielded a surviving fraction of 0.849 ± 0.055.
For SNU475 LIVER, the surviving fraction was 0.991 ± 0.048.
SUM44 BREAST was tested, and the surviving fraction was 1.15 ± 0.24.
SUM149.B1*.S BREAST was tested, and the surviving fraction was 1.02 ± 0.068.
SUM159 BREAST was tested, and the surviving fraction was 1.02 ± 0.032.
SYO1 SYNOVIAL showed a surviving fraction of 0.967 ± 0.035.
Work on T47D BREAST yielded a surviving fraction of 0.983 ± 0.027.
With U2OS BONE the surviving fraction was 1.005 ± 0.0056.
Work on VCAP PROSTATE yielded a surviving fraction of 0.9053 ± 0.0074.
VP229 BREAST gave a surviving fraction of 1.03 ± 0.18.
YAMATO SYNOVIAL showed a surviving fraction of 0.874 ± 0.067.
With ZR751 BREAST the surviving fraction was 0.95 ± 0.085.

Same assay, conditions: 5 nM; exposure time: 5 days
Work on MFM223 BREAST yielded a surviving fraction of 0.259 ± 0.2.
With MG63 BONE the surviving fraction was 0.783 ± 0.048.
With MHM BONE the surviving fraction was 1.01 ± 0.011.
NCIH441 LUNG was tested, and the surviving fraction was 0.547 ± 0.064.
NOS1 BONE gave a surviving fraction of 0.316 ± 0.034.
In the case of NY BONE, the surviving fraction is reported as 0.965 ± 0.021.
For OS25HAL BONE, the surviving fraction was 0.295 ± 0.029.
Test System OSHN BONE has a surviving fraction of 0.265 ± 0.013.
For RDES SOFT TISSUE, the surviving fraction was 1.65 ± 0.19.
With SCC47 HEADNECK the surviving fraction was 0.916 ± 0.087.
For SCC90 HEADNECK, the surviving fraction was 1.08 ± 0.1.
With SG27 HEADNECK the surviving fraction was 0.813 ± 0.13.
SG28 HEADNECK gave a surviving fraction of 0.882 ± 0.025.
Test System SG31 HEADNECK has a surviving fraction of 0.883 ± 0.062.
SG32 HEADNECK gave a surviving fraction of 0.438 ± 0.017.
SG43 HEADNECK showed a surviving fraction of 0.744 ± 0.088.
For SIHA CERVIX, the surviving fraction was 0.977 ± 0.049.
SJSA1 BONE showed a surviving fraction of 1.46 ± 0.018.
Test System SKBR3 BREAST has a surviving fraction of 0.825 ± 0.024.
SNU475 LIVER showed a surviving fraction of 0.97 ± 0.044.
Work on SUM44 BREAST yielded a surviving fraction of 1.1 ± 0.2.
Test System SUM149.B1*.S BREAST has a surviving fraction of 0.903 ± 0.068.
SUM159 BREAST gave a surviving fraction of 0.536 ± 0.072.
SYO1 SYNOVIAL was tested, and the surviving fraction was 0.761 ± 0.03.
T47D BREAST was tested, and the surviving fraction was 0.917 ± 0.035.
With U2OS BONE the surviving fraction was 0.616 ± 0.036.
VCAP PROSTATE showed a surviving fraction of 0.34 ± 0.025.
With VP229 BREAST the surviving fraction was 0.903 ± 0.17.
YAMATO SYNOVIAL was tested, and the surviving fraction was 0.39 ± 0.039.
ZR751 BREAST showed a surviving fraction of 0.559 ± 0.083.

Same assay, conditions: 10 nM; exposure time: 5 days
MFM223 BREAST showed a surviving fraction of 0.209 ± 0.15.
MG63 BONE gave a surviving fraction of 0.659 ± 0.026.
MHM BONE was tested, and the surviving fraction was 1.05 ± 0.016.
Work on NCIH441 LUNG yielded a surviving fraction of 0.284 ± 0.023.
NOS1 BONE was tested, and the surviving fraction was 0.17 ± 0.025.
Test System NY BONE has a surviving fraction of 0.997 ± 0.031.
For OS25HAL BONE, the surviving fraction was 0.158 ± 0.03.
With OSHN BONE the surviving fraction was 0.097 ± 0.008.
RDES SOFT TISSUE was tested, and the surviving fraction was 0.622 ± 0.052.
With SCC47 HEADNECK the surviving fraction was 0.435 ± 0.069.
In the case of SCC90 HEADNECK, the surviving fraction is reported as 1.1 ± 0.037.
Test System SG27 HEADNECK has a surviving fraction of 0.575 ± 0.066.
SG28 HEADNECK showed a surviving fraction of 0.631 ± 0.05.
Work on SG31 HEADNECK yielded a surviving fraction of 0.893 ± 0.11.
With SG32 HEADNECK the surviving fraction was 0.238 ± 0.036.
In the case of SG43 HEADNECK, the surviving fraction is reported as 0.81 ± 0.15.
SIHA CERVIX showed a surviving fraction of 0.735 ± 0.011.
Test System SJSA1 BONE has a surviving fraction of 1.59 ± 0.028.
SKBR3 BREAST showed a surviving fraction of 0.53 ± 0.071.
SNU475 LIVER gave a surviving fraction of 0.944 ± 0.03.
In the case of SUM44 BREAST, the surviving fraction is reported as 1 ± 0.27.
Test System SUM149.B1*.S BREAST has a surviving fraction of 0.583 ± 0.058.
Work on SUM159 BREAST yielded a surviving fraction of 0.537 ± 0.057.
In the case of SYO1 SYNOVIAL, the surviving fraction is reported as 0.514 ± 0.012.
T47D BREAST showed a surviving fraction of 0.763 ± 0.0085.
U2OS BONE was tested, and the surviving fraction was 0.304 ± 0.043.
VCAP PROSTATE was tested, and the surviving fraction was 0.286 ± 0.051.
With VP229 BREAST the surviving fraction was 0.874 ± 0.081.
For YAMATO SYNOVIAL, the surviving fraction was 0.29 ± 0.027.
ZR751 BREAST showed a surviving fraction of 0.411 ± 0.07.

Source: the supplement of paper PMC6045584
